Reference: ChEMBL document CHEMBL3137667, “[Drug-induced liver injury; fourteenth updated edition of the bibliographic database of liver injuries and related drugs]” (Gastroenterol Clin Biol, 2004)

Key:
[1] = Highest frequency of moderate liver toxicity observed during clinical trials, expressed as a percentage. [column '% BIOL' in source]; conditions: human
[2] = Highest frequency of acute liver toxicity observed during clinical trials, expressed as a percentage. [column '% AIGUE' in source]; conditions: human
[3] = Times to onset, minimal and maximal, observed in the indexed observations. [column 'DELAI' in source]; conditions: human
[4] = Proposed mechanism(s) of liver damage. [column 'MEC' in source]; conditions: human
[5] = human, serum
[6] = human, serum; remark: listed apart in the source
[7] = human
[8] = human; remark: listed apart in the source
[9] = human; remark: listed apart in the source
[10] = human, serum, 4383 h
[11] = human; remark: listed apart in the source
[12] = human; remark: listed apart in the source
[13] = human; remark: listed apart in the source
[14] = human; remark: listed apart in the source
[15] = human; remark: listed apart in the source
[16] = human; remark: listed apart in the source
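For Hepatotoxicity (association with vascular disease) in this document: count of indexed literature references reporting vascular liver injury in humans, e.g. peliosis hepatitis, hepatic veno-occlusive disease or Budd-Chiari syndrome.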
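For Hepatotoxicity (benign tumour) in this document: value is a count of indexed literature references citing a benign tumour confirmed by histopathology.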
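For Hepatotoxicity (choleostasis) in this document: human cholestatic liver injury, shown by histopathology or by peak ALT or AST elevation over alkaline phosphatase ratio below 2, value counts indexed literature reports.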
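For Hepatotoxicity (chronic liver disease) in this document: chronic liver injury confirmed by histopathology or persistently raised serum aminotransferase activity beyond 6 months, value given as the count of indexed literature references.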
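For Hepatotoxicity (cirrhosis) in this document: value is a count of indexed literature references reporting cirrhosis confirmed by histopathology.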
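For Hepatotoxicity (cytolytic) in this document: human cytolytic liver injury, shown by histopathology or by a ratio above 5 of peak ALT or AST elevation to alkaline phosphatase elevation, value counts indexed references.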
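For Hepatotoxicity (granulomatous hepatitis) in this document: value is a count of indexed literature references reporting granulomatous liver disease confirmed by histopathology.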
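For Hepatotoxicity (malignant tumour) in this document: malignant tumour confirmed by histopathology, value gives the count of indexed literature references reporting it.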
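For Hepatotoxicity (severe hepatitis) in this document: human clinical data: severe hepatitis, meaning potentially life-threatening liver failure or clinically observed cases, the value counts how many indexed literature references report it.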
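For Hepatotoxicity (steatosis) in this document: steatosis confirmed by histopathology, value is the count of indexed references.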

| SMILES | Hepatotoxicity (moderate) [1] [%] | Hepatotoxicity (acute) [2] [%] | Hepatotoxicity (time to onset) [3] | Hepatotoxicity (mechanism) [4] | Hepatotoxicity (moderate) [5] | Hepatotoxicity (acute) [6] | Hepatotoxicity (cytolytic) [7] | Hepatotoxicity (choleostasis) [8] | Hepatotoxicity (severe hepatitis) [9] | Hepatotoxicity (chronic liver disease) [10] | Hepatotoxicity (cirrhosis) [11] | Hepatotoxicity (granulomatous hepatitis) [12] | Hepatotoxicity (association with vascular disease) [13] | Hepatotoxicity (steatosis) [14] | Hepatotoxicity (malignant tumour) [15] | Hepatotoxicity (benign tumour) [16] |
| --- | --- | --- | --- | --- | --- | --- | --- | --- | --- | --- | --- | --- | --- | --- | --- | --- |
| CS(=O)(=O)c1ccc(C2=C(c3ccccc3)C(=O)OC2)cc1 [ROFECOXIB] | 3.2 | 0 | 9 weeks | Allergic | 1 | 2 | 1 | 1 | 0 | 0 | 0 | 0 | 0 | 0 | 0 | 0 |
| c1ccc2c(CCC3CCNCC3)c[nH]c2c1 [INDALPINE] | 0 | 0 | 25 days - 4 months | Allergic | 1 | 1 | 1 | 1 | 0 | 0 | 0 | 0 | 0 | 1 | 0 | 0 |
| Cc1cc2c(s1)Nc1ccccc1N=C2N1CCN(C)CC1 [OLANZAPINE] | 30 | 0 | 13 days - 15 months | Allergic, Dose-dependant | 13 | 2 | 2 | 1 | 0 | 0 | 0 | 0 | 0 | 1 | 0 | 0 |
| Nc1ccc(S(N)(=O)=O)cc1 [SULFANILAMIDE] | 0 | 0 | 2 weeks - 3 months | Allergic | 0 | 5 | 5 | 1 | 5 | 0 | 0 | 0 | 0 | 1 | 0 | 0 |
| C[C@@H]1C[C@H]2[C@@H]3CCC4=CC(=O)C=C[C@]4(C)C3=CC[C@]2(C)[C@H]1C(=O)CN1CCN(c2cc(N3CCCC3)nc(N3CCCC3)n2)CC1 [TIRILAZAD] | 8.5 | 0 | 3 days - 10 days | Dose-dependant | 2 | 0 | 0 | 0 | 0 | 0 | 0 | 0 | 0 | 0 | 0 | 0 |
| O=c1[nH]c2ccccc2n1CCCN1CCN(C(c2ccccc2)c2ccccc2)CC1 [OXATOMIDE] | 8.3 | 0 | 10 days - 3 months | Allergic | 2 | 4 | 3 | 2 | 0 | 0 | 0 | 0 | 0 | 0 | 0 | 0 |
| Cc1ccnc2c1NC(=O)c1cccnc1N2C1CC1 [NEVIRAPINE] | 47.1 | 37.5 | 8 days - 3 years | Allergic | 18 | 49 | 29 | 2 | 14 | 0 | 0 | 0 | 0 | 0 | 0 | 0 |
| c1ccc(C2(N3CCCCC3)CCCCC2)cc1 [PHENCYCLIDINE] | 49.9 | 0 | 6 hours - 3 days | Dose-dependant | 1 | 2 | 2 | 0 | 2 | 0 | 0 | 0 | 0 | 0 | 0 | 0 |
| CC(=O)c1ccc(S(=O)(=O)NC(=O)NC2CCCCC2)cc1 [ACETOHEXAMIDE] | 0 | 0 | 3 weeks - 17 months | Dose-dependant | 0 | 6 | 2 | 0 | 0 | 0 | 1 | 0 | 0 | 0 | 0 | 0 |
| CC(C(=O)O)c1ccc2c(c1)[nH]c1ccc(Cl)cc12 (stereo not given) [CARPROFEN] | 56.3 | 0 | 1 week - 1 month | Dose-dependant | 5 | 0 | 0 | 0 | 0 | 0 | 0 | 0 | 0 | 0 | 0 | 0 |
